Patent publication US20110152316A1, “3,4-SUBSTITUTED PIPERIDINE DERIVATIVES AS RENIN INHIBITORS” (priority 2008, published 2011)

Legend:
[1] = molecular target: T1, Human recombinant renin (Homo sapiens, UniProt P00797); experiment: Inhibition of human recombinant renin (buffer); format: biochemical; details: 50 mM MOPS pH 7.4, 37° C., 3 hours
T1 construct: purchased Proteos
T1 sequence (P00797 67-406): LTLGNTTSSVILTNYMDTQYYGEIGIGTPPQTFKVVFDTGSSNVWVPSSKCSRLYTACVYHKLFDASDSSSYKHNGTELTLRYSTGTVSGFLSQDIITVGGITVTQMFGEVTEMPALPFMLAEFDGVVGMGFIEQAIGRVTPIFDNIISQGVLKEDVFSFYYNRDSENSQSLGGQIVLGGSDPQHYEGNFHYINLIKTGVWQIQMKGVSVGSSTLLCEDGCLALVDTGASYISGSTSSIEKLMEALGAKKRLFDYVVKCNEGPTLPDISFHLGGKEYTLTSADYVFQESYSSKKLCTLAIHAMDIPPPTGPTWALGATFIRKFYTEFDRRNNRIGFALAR
Procedure: Human recombinant renin (Proteos) in 50 mM MOPS pH 7.4, 100 mM NaCl, 0.002% Tween 20 at a final concentration of […] is incubated with inhibitors from a 50 fold concentrated DMSO solution and 6 μM of an internally-quench fluorescent peptide: DNP-Lys-His-Pro-Phe-His-Leu-Val-Ile-His-D,L-Amp (SEQ ID NO: 1); Paschalidou K. et al., Biochem J., 2004, 382, 1031). The reactions take place in a Costar 384 well black plate (#3573) at 37° C. for 3 hours. Fluorescence is measured at times 0 and 3 hours with a SpectraMax Gemini EM reader set at an excitation wavelength of 328 nm and at an emission wavelength of 388 nm. Background fluorescence at t=0 is subtracted from the measurement at t=3 hours. Inhibitory activity of the compounds is expressed as IC 50.

[2] = molecular target: T2, recombinant renin in human plasma (Homo sapiens, UniProt P00797); experiment: Inhibition of renin in human plasma; format: biochemical; details: human EDTA plasma, 37° C., 1 hour
T2 construct: purchased Proteos
T2 sequence (P00797 67-406): T1 sequence (P00797 67-406)
Procedure: Human EDTA-collected plasma is rapidly thawed in warm water and centrifuged at 2900 g for 15 minutes at 4° C. The supernatant is collected and recombinant renin (Proteos) is added at a final concentration of 1 nM. The plasma is transferred to a Costar black 384 well plate (#3573). Renin inhibitors are added from a 17.5 fold concentrated DMSO solution and pre-incubated at 37° C. for 10 minutes. The internally-quench fluorescent peptide QXL520™-Lys-His-Pro-Phe-His-Leu-Val-Ile-His-Lys (5-FAM) (Anaspec), SEQ ID NO: 2, is diluted in 3M Tris pH 7.2, 200 mM EDTA and added to the plasma. The final concentrations are: 6 μM substrate, 342 mM Tris, 23 mM EDTA. The plate is incubated at 37° C. for 1 hour. The plate is read in a SpectraMax Gemini EM reader set at an excitation wavelength of 490 nm and an emission wavelength of 520 nm at times 0 and 1 hour. Background fluorescence at t=0 is subtracted from the measurement at t=1 hour. Inhibitory activity of the compounds is expressed as IC50.

| IC50 [1] | IC50 [2] | Compound |
| --- | --- | --- |
| 0.013 µM | 0.039 µM | COCCCc1cc(CN(C(=O)[C@@H]2CNCC[C@H]2c2cc(=O)n(C)c3ccccc23)C2CC2)cc(OCCOC)c1 (relative stereo) [Example 1, trans-N-Cyclopropyl-4-(1-methyl-2-oxo-1,2-dihydro-4-quinolinyl)-N-({3-{[2-(methyloxy)ethyl]oxy}-5-[3-(methyloxy)propyl]phenyl}methyl)-3-piperidinecarboxamide] |
| 0.0022 µM | 0.0076 µM | COCCCc1cc(CN(C(=O)[C@@H]2CNCC[C@H]2c2cc(=O)n(C)c3cc(Cl)ccc23)C2CC2)cc(OCCOC)c1 (relative stereo) [Example 2, trans-4-(7-Chloro-1-methyl-2-oxo-1,2-dihydro-4-quinolinyl)-N-cyclopropyl-N-({3-{[2-(methyloxy)ethyl]oxy}-5-[3-(methyloxy)propyl]phenyl}methyl)-3-piperidinecarboxamide] |
